This passage reports target mRNA inhibition results from the OligoGym collection.

Several values for one entry are separate records, joined by “and”; a condition that tells them apart may be missing. Identical values can stand only once. After the bases stand the sugars from the 5' end (letter, count) and the backbone: PS all phosphorothioate, else s phosphorothioate and o phosphodiester by linkage. HELM strings list units from the 5' end as sugar, base in round brackets, then linkage (d deoxyribose, r ribose, m 2'-O-methyl, p phosphodiester). Methylation of C is not given here. [moe] = 2'-O-(2-methoxyethyl) (MOE); [cEt] = constrained ethyl (cEt); [sp] = phosphorothioate linkage; e = 2'-O-(2-methoxyethyl) (MOE); k = constrained ethyl (cEt); d = 2'-deoxy (DNA)

The target in data set [1] is HBV. The following applies: ASO.
The target of data set [2] is IRF5. The following applies: ASO.

In the case of “RNA1{[moe](C)[sp].[moe](G)[sp].[moe](T)[sp].[moe](G)[sp].[moe](C)[sp].d(A)[sp].d(G)[sp].d(A)[sp].d(G)[sp].d(G)[sp].d(T)[sp].d(G)[sp].d(A)[sp].d(A)[sp].[moe](G)[sp].[moe](C)[sp].[moe](G)}$$$$V2.0”, in data set [1] (HepG2, 0.07 µM), the target mRNA inhibition was 74% and 63%. Turning to “RNA1{[moe](A)[sp].[moe](G)[sp].[moe](G)[sp].d(C)[sp].d(A)[sp].d(T)[sp].d(A)[sp].d(G)[sp].d(C)[sp].d(A)[sp].d(G)[sp].d(C)[sp].[moe](A)[sp].[moe](G)[sp].[moe](G)[sp].[moe](A)[sp].[moe](T)}$$$$V2.0”, in data set [1] (HepG2, 0.07 µM), the target mRNA inhibition is 55% and 53%.

As to “RNA1{[moe](T)[sp].[cEt](T)[sp].[cEt](C)[sp].d(C)[sp].d(G)[sp].d(C)[sp].d(A)[sp].d(G)[sp].d(T)[sp].d(A)[sp].d(T)[sp].d(G)[sp].d(G)[sp].[cEt](A)[sp].[cEt](T)[sp].[moe](C)}$$$$V2.0”, the target mRNA inhibition in data set [1] (HepG2, 0.07 µM) was 47% and 61%. In the case of “RNA1{[moe](A)[sp].[moe](G)[sp].d(G)[sp].d(A)[sp].d(G)[sp].d(T)[sp].d(T)[sp].d(C)[sp].d(C)[sp].d(G)[sp].d(C)[sp].[moe](A)[sp].[moe](G)[sp].[moe](T)[sp].[moe](A)[sp].[moe](T)[sp].[moe](G)}$$$$V2.0”, in data set [1] (HepG2, 0.07 µM), the target mRNA inhibition is 81% and 63%. On the same count and under the same terms, next, “RNA1{[moe](G)[sp].[moe](C)[sp].d(A)[sp].d(G)[sp].d(A)[sp].d(G)[sp].d(G)[sp].d(T)[sp].d(G)[sp].d(A)[sp].d(A)[sp].[moe](G)[sp].[moe](C)[sp].[moe](G)[sp].[moe](A)[sp].[moe](A)[sp].[moe](G)}$$$$V2.0”: 20% and 40%; “RNA1{[moe](A)[sp].[moe](A)[sp].[moe](G)[sp].d(C)[sp].d(G)[sp].d(A)[sp].d(A)[sp].d(G)[sp].d(T)[sp].d(G)[sp].d(C)[sp].d(A)[sp].[moe](C)[sp].[moe](A)[sp].[moe](C)[sp].[moe](G)}$$$$V2.0”: 74% and 64%. As to “RNA1{[moe](G)[sp].[cEt](C)[sp].[cEt](A)[sp].d(G)[sp].d(T)[sp].d(A)[sp].d(T)[sp].d(G)[sp].d(G)[sp].d(A)[sp].d(T)[sp].d(C)[sp].d(G)[sp].[cEt](G)[sp].[cEt](C)[sp].[moe](A)}$$$$V2.0”, the target mRNA inhibition in data set [1] (HepG2, 0.07 µM) is 77% and 75%. On to “RNA1{[moe](A)[sp].[moe](T)[sp].[moe](T)[sp].[cEt](T)[sp].d(A)[sp].d(T)[sp].d(G)[sp].d(C)[sp].d(C)[sp].d(T)[sp].d(A)[sp].d(C)[sp].d(A)[sp].[cEt](G)[sp].[moe](C)[sp].[moe](C)[sp].[moe](T)}$$$$V2.0”, for which the target mRNA inhibition in data set [1] (HepG2, 0.009375 µM) came out at 32%; in data set [1] (HepG2, 0.01875 µM), 32%; in data set [1] (HepG2, 0.0375 µM), 42%; in data set [1] (HepG2, 0.075 µM), 62%; in data set [1] (HepG2, 0.15 µM), 76%; in data set [1] (HepG2, 0.3 µM), 80%. As for “RNA1{[moe](C)[sp].[moe](A)[sp].[moe](A)[sp].[moe](T)[sp].[moe](T)[sp].d(T)[sp].d(A)[sp].d(T)[sp].d(G)[sp].d(C)[sp].d(C)[sp].d(T)[sp].d(A)[sp].d(C)[sp].[moe](A)[sp].[moe](G)[sp].[moe](C)}$$$$V2.0”, the target mRNA inhibition in data set [1] (HepG2, 0.07 µM) is 30% and 13%. Still for that read-out and setting: next, “RNA1{[moe](A)[sp].[moe](G)[sp].[moe](A)[sp].[moe](G)[sp].d(G)[sp].d(T)[sp].d(G)[sp].d(A)[sp].d(A)[sp].d(G)[sp].d(C)[sp].d(G)[sp].d(A)[sp].[moe](A)[sp].[moe](G)[sp].[moe](T)}$$$$V2.0”: 52% and 54%; “RNA1{[moe](G)[sp].[moe](G)[sp].d(T)[sp].d(G)[sp].d(A)[sp].d(A)[sp].d(G)[sp].d(C)[sp].d(G)[sp].d(A)[sp].d(A)[sp].[moe](G)[sp].[moe](T)[sp].[moe](G)[sp].[moe](C)[sp].[moe](A)}$$$$V2.0”: 65% and 62%; “RNA1{[moe](T)[sp].[moe](A)[sp].[moe](T)[sp].d(G)[sp].d(C)[sp].d(C)[sp].d(T)[sp].d(A)[sp].d(C)[sp].d(A)[sp].d(G)[sp].d(C)[sp].d(C)[sp].[cEt](T)[sp].[cEt](C)[sp].[cEt](C)}$$$$V2.0”: 39% and 45%. Same read-out and setting: next, “RNA1{[moe](C)[sp].[moe](C)[sp].d(A)[sp].d(A)[sp].d(T)[sp].d(T)[sp].d(T)[sp].d(A)[sp].d(T)[sp].d(G)[sp].d(C)[sp].[moe](C)[sp].[moe](T)[sp].[moe](A)[sp].[moe](C)[sp].[moe](A)}$$$$V2.0”: 13% and 22%; “RNA1{[moe](A)[sp].[cEt](T)[sp].[cEt](T)[sp].d(T)[sp].d(A)[sp].d(T)[sp].d(G)[sp].d(C)[sp].d(C)[sp].d(T)[sp].d(A)[sp].d(C)[sp].d(A)[sp].[cEt](G)[sp].[cEt](C)[sp].[moe](C)}$$$$V2.0”: 57% and 46%. In the case of “RNA1{[moe](A)[sp].[moe](G)[sp].[moe](G)[sp].d(C)[sp].d(A)[sp].d(T)[sp].d(A)[sp].d(G)[sp].d(C)[sp].d(A)[sp].d(G)[sp].d(C)[sp].d(A)[sp].[cEt](G)[sp].[cEt](G)[sp].[cEt](A)}$$$$V2.0”, the target mRNA inhibition in data set [1] (HepG2, 0.07 µM) was 69% and 77%. As to “RNA1{[moe](C)[sp].[moe](A)[sp].[moe](G)[sp].d(A)[sp].d(G)[sp].d(G)[sp].d(T)[sp].d(G)[sp].d(A)[sp].d(A)[sp].d(G)[sp].d(C)[sp].d(G)[sp].[cEt](A)[sp].[cEt](A)[sp].[cEt](G)}$$$$V2.0”, in data set [1] (HepG2, 0.07 µM), the target mRNA inhibition was 60% and 62%. As for “RNA1{[moe](T)[sp].[moe](G)[sp].[moe](A)[sp].[moe](G)[sp].d(G)[sp].d(C)[sp].d(A)[sp].d(T)[sp].d(A)[sp].d(G)[sp].d(C)[sp].d(A)[sp].d(G)[sp].[moe](C)[sp].[moe](A)[sp].[moe](G)}$$$$V2.0”, the target mRNA inhibition in data set [1] (HepG2, 0.07 µM) is 56% and 53%.

For the substance “RNA1{[moe](G)[sp].[moe](G)[sp].[moe](A)[sp].[moe](G)[sp].[moe](T)[sp].d(T)[sp].d(C)[sp].d(C)[sp].d(G)[sp].d(C)[sp].d(A)[sp].d(G)[sp].d(T)[sp].d(A)[sp].[moe](T)[sp].[moe](G)}$$$$V2.0”, the target mRNA inhibition in data set [1] (HepG2, 0.07 µM) is 74% and 50%. With “RNA1{[moe](C)[sp].[cEt](A)[sp].[cEt](G)[sp].d(C)[sp].d(T)[sp].d(T)[sp].d(G)[sp].d(G)[sp].d(A)[sp].d(G)[sp].d(G)[sp].d(C)[sp].d(T)[sp].[cEt](T)[sp].[cEt](G)[sp].[moe](A)}$$$$V2.0”, the target mRNA inhibition in data set [1] (HepG2, 0.07 µM) was 5% and 12%.

Take “RNA1{[moe](G)[sp].[moe](G)[sp].d(T)[sp].d(G)[sp].d(A)[sp].d(A)[sp].d(G)[sp].d(C)[sp].d(G)[sp].d(A)[sp].d(A)[sp].[moe](G)[sp].[moe](T)[sp].[moe](G)[sp].[moe](C)[sp].[moe](A)[sp].[moe](C)}$$$$V2.0”: the target mRNA inhibition in data set [1] (HepG2, 0.07 µM) was 77% and 71%.

For “RNA1{[moe](C)[sp].[moe](G)[sp].d(T)[sp].d(G)[sp].d(C)[sp].d(A)[sp].d(G)[sp].d(A)[sp].d(G)[sp].d(G)[sp].d(T)[sp].[moe](G)[sp].[moe](A)[sp].[moe](A)[sp].[moe](G)[sp].[moe](C)[sp].[moe](G)}$$$$V2.0”, in data set [1] (HepG2, 0.07 µM), the target mRNA inhibition was 74% and 68%. Still for that read-out and setting: next, “RNA1{[moe](A)[sp].[moe](T)[sp].d(G)[sp].d(A)[sp].d(G)[sp].d(G)[sp].d(C)[sp].d(A)[sp].d(T)[sp].d(A)[sp].d(G)[sp].[moe](C)[sp].[moe](A)[sp].[moe](G)[sp].[moe](C)[sp].[moe](A)[sp].[moe](G)}$$$$V2.0”: 64%; “RNA1{[moe](G)[sp].[moe](C)[sp].[moe](A)[sp].[moe](T)[sp].[moe](A)[sp].d(G)[sp].d(C)[sp].d(A)[sp].d(G)[sp].d(C)[sp].d(A)[sp].d(G)[sp].d(G)[sp].d(A)[sp].[moe](T)[sp].[moe](G)}$$$$V2.0”: 57% and 54%. On the same count and under the same terms, the result for “RNA1{[moe](G)[sp].[moe](C)[sp].[moe](A)[sp].[moe](C)[sp].[moe](T)[sp].d(A)[sp].d(G)[sp].d(T)[sp].d(A)[sp].d(A)[sp].d(A)[sp].d(C)[sp].d(T)[sp].d(G)[sp].[moe](A)[sp].[moe](G)[sp].[moe](C)}$$$$V2.0” reads 58% and 63%. In turn, “TGAGTCATGGGCTGAG (sugars kkddddddddddkeke, PS)” showed a target mRNA inhibition in data set [2] (KARPAS-229, 4 µM) of 0%. Substance “GAGTGAGACGAGCAAA (sugars kddddddddddkekek, PS)” came in with a target mRNA inhibition in data set [2] (KARPAS-229, 4 µM) of 18%. Take “GGTCTGGCCCTTTTGG (sugars kkddddddddddkeke, PS)”: the target mRNA inhibition in data set [2] (KARPAS-229, 4 µM) was found to be 0%. Turning to “CTTGGTCTTGACCTCC (sugars kkdddddddddkdkdk, PS)”, the target mRNA inhibition in data set [2] (KARPAS-229, 4 µM) came out at 13%. Substance “AGGTTCTTGGACTCTC (sugars k2 d9 e3 k2, PS)” registered a target mRNA inhibition in data set [2] (KARPAS-229, 4 µM) of 0%. As for “GTCTTGACCTCCCGCT (sugars k2 d9 e3 k2, PS)”, the target mRNA inhibition is 22% in data set [2] (KARPAS-229, 0.44444 µM); 32% in data set [2] (KARPAS-229, 1.33333 µM); 54% and 41% in data set [2] (KARPAS-229, 4 µM); 58% in data set [2] (KARPAS-229, 12 µM).

For “GGTTCTTGGACTCTCA (sugars k2 d9 e3 k2, PS)”, the target mRNA inhibition in data set [2] (KARPAS-229, 0.44444 µM) was 46%; in data set [2] (KARPAS-229, 1.33333 µM), 64%; in data set [2] (KARPAS-229, 4 µM), 48% and 73%; in data set [2] (KARPAS-229, 12 µM) it was 84%.

In data set [2] (KARPAS-229, 4 µM), “CGGTCTTTGAGGTCTG (sugars kddddddddddkekek, PS)” displayed a target mRNA inhibition of 68%. For AGGAGTGAGACGAGCA (sugars k3 d10 k3, PS), the target mRNA inhibition is 12% in data set [2] (KARPAS-229, 0.44444 µM); 41% in data set [2] (KARPAS-229, 1.33333 µM); 56% and 58% in data set [2] (KARPAS-229, 4 µM); 70% in data set [2] (KARPAS-229, 12 µM). Consider TGAATTTTGTGACTGT (sugars k3 d10 k3, PS), for which the target mRNA inhibition in data set [2] (KARPAS-229, 0.44444 µM) is 32%; in data set [2] (KARPAS-229, 1.33333 µM) it was 59%; in data set [2] (KARPAS-229, 4 µM) it was 64% and 70%; in data set [2] (KARPAS-229, 12 µM), 81%. Substance “GTGTATTTCCCTGTCT (sugars k3 d9 k3 e1, PS)” had a target mRNA inhibition in data set [2] (KARPAS-229, 4 µM) of 30%. “AGCTTGGTCTTGACCT (sugars kkddddddddkekekk, PS)” gave a target mRNA inhibition in data set [2] (KARPAS-229, 4 µM) of 0%. “TCACCACTGTGTACCC (sugars kkddddddddkekekk, PS)” showed a target mRNA inhibition in data set [2] (KARPAS-229, 4 µM) of 0%.
